# Experimental data reported in ChEMBL document CHEMBL4024712, “Synthesis, stability and mechanistic studies of potent anticryptococcal hexapeptides” (Eur J Med Chem, 2017).
# Non-standard residues stand in square brackets, D forms with d. Residues, ends and D or L forms follow the SMILES beside them. Ala(9-anthryl) = N[C@@H](Cc1c2ccccc2cc2ccccc12)C(=O)O; His(τ-Bzl) = N[C@@H](Cc1cn(Cc2ccccc2)cn1)C(=O)O; Phe(4-Me) = Cc1ccc(C[C@H](N)C(=O)O)cc1; 1Nal = N[C@@H](Cc1cccc2ccccc12)C(=O)O; Bta = N[C@@H](Cc1csc2ccccc12)C(=O)O; Cha = N[C@@H](CC1CCCCC1)C(=O)O; Orn = NCCC[C@H](N)C(=O)O
# How the values were obtained:
# Staphylococcus aureus [1] = test: Bactericidal activity against Staphylococcus aureus ATCC 29213 by CLSI method; format: functional
# Staphylococcus aureus [2] = test: Anti-bacterial activity against Staphylococcus aureus ATCC 29213 by CLSI method; format: functional; conditions: Staphylococcus aureus, ATCC 29213
# [3] = tested on: Mycobacterium intracellulare; test: Bactericidal activity against Mycobacterium intracellulare ATCC 23068 after 68 to 72 hrs by Alamar blue assay; format: functional
# Vero = test: Cytotoxicity against African green monkey Vero cells up to 10 ug/ml after 48 hrs by neutral red dye based assay; format: cell-based; conditions: chlorocebus sabaeus
# Escherichia coli [4] = test: Anti-bacterial activity against Escherichia coli ATCC 35218 by CLSI method; format: functional; conditions: for MIC: Escherichia coli, ATCC 35218
# Nakaseomyces glabratus [5] = test: Antifungal activity against Candida glabrata ATCC 90030 after 18 to 24 hrs by Alamar blue assay; format: functional; conditions: for MIC: Nakaseomyces glabratus, ATCC 90030
# Staphylococcus aureus [6] = test: Anti-bacterial activity against methicillin-resistant Staphylococcus aureus ATCC 33591 by CLSI method; format: functional; conditions: Staphylococcus aureus, ATCC 33591
# [7] = tested on: Mycobacterium intracellulare; test: Anti-bacterial activity against Mycobacterium intracellulare ATCC 23068 after 68 to 72 hrs by Alamar blue assay; format: functional, cell-based; conditions: for MIC: Mycobacterium intracellulare, ATCC 23068
# Pichia kudriavzevii [8] = test: Fungicidal activity against Candida krusei ATCC 6258 after 18 to 24 hrs by Alamar blue assay; format: functional
# Candida albicans [9] = test: Antifungal activity against Candida albicans ATCC 90028 after 18 to 24 hrs by Alamar blue assay; format: functional; conditions: for MIC: Candida albicans, ATCC 90028
# Cryptococcus neoformans [10] = test: Antifungal activity against Cryptococcus neoformans ATCC 90113 after 68 to 72 hrs by Alamar blue assay; format: functional
# Pichia kudriavzevii [11] = test: Antifungal activity against Candida krusei ATCC 6258 after 18 to 24 hrs by Alamar blue assay; format: functional; conditions: Pichia kudriavzevii, ATCC 6258
# Pseudomonas aeruginosa = test: Anti-bacterial activity against Pseudomonas aeruginosa ATCC 27853 by CLSI method; format: functional
# Escherichia coli [12] = test: Bactericidal activity against Escherichia coli ATCC 35218 by CLSI method; format: functional
# Aspergillus fumigatus [13] = test: Antifungal activity against Aspergillus fumigatus ATCC 90906 after 68 to 72 hrs by Alamar blue assay; format: functional
# Staphylococcus aureus [14] = test: Bactericidal activity against methicillin-resistant Staphylococcus aureus ATCC 33591 by CLSI method; format: functional
# Cryptococcus neoformans [15] = test: Fungicidal activity against Cryptococcus neoformans ATCC 90113 after 68 to 72 hrs by Alamar blue assay; format: functional
# Candida albicans [16] = test: Fungicidal activity against Candida albicans ATCC 90028 after 18 to 24 hrs by Alamar blue assay; format: functional
# Nakaseomyces glabratus [17] = test: Fungicidal activity against Candida glabrata ATCC 90030 after 18 to 24 hrs by Alamar blue assay; format: functional
# Aspergillus fumigatus [18] = test: Fungicidal activity against Aspergillus fumigatus ATCC 90906 after 68 to 72 hrs by Alamar blue assay; format: functional
SMILES,MBC (Staphylococcus aureus [1]),MIC (Staphylococcus aureus [2]),MBC [3],Activity (Vero),MIC (Escherichia coli [4]),IC50 (Nakaseomyces glabratus [5]),MIC (Staphylococcus aureus [6]),MIC [7],MFC (Pichia kudriavzevii [8]),IC50 (Candida albicans [9]),MIC (Cryptococcus neoformans [10]),MIC (Pichia kudriavzevii [11]),IC50 (Pseudomonas aeruginosa),IC50 (Aspergillus fumigatus [13]),MBC (Staphylococcus aureus [14]),MFC (Candida albicans [16]),IC50 (Escherichia coli [4]),MIC (Nakaseomyces glabratus [5]),IC50 [7],MFC (Nakaseomyces glabratus [17]),also measured
Cc1ccc(C[C@H](NC(=O)[C@@H](Cc2ccccc2)NC(=O)[C@@H](Cc2c[nH]c3ccccc23)NC(=O)[C@@H](N)CCCCN)C(=O)N[C@H](Cc2ccccc2)C(=O)N[C@@H](Cc2cn(Cc3ccccc3)cn2)C(N)=O)cc1 (H-K[dW][dF][Phe(4-Me)][dF][His(τ-Bzl)]-NH2),20 µg/mL,20 µg/mL,20 µg/mL,Non-Toxic,20 µg/mL,Not Active,20 µg/mL,20 µg/mL,20 µg/mL,Not Active,2.5 µg/mL,20 µg/mL,Not Active,Not Active,–,–,–,–,–,–,MBC (Escherichia coli [12]): 20 µg/mL
Cc1ccc(C[C@H](NC(=O)[C@@H](Cc2ccccc2)NC(=O)[C@@H](Cc2c[nH]c3ccccc23)NC(=O)[C@@H](N)CCCNC(=N)N)C(=O)N[C@H](Cc2ccccc2)C(=O)N[C@@H](Cc2cn(Cc3ccccc3)cn2)C(N)=O)cc1 (H-R[dW][dF][Phe(4-Me)][dF][His(τ-Bzl)]-NH2),20 µg/mL,–,10 µg/mL,Non-Toxic,10 µg/mL,Not Active,20 µg/mL,–,–,–,2.5 µg/mL,20 µg/mL,Not Active,Not Active,20 µg/mL,20 µg/mL,–,–,–,–,MFC (Cryptococcus neoformans [15]): 2.5 µg/mL; MIC (Candida albicans [9]): 20 µg/mL; MBC (Escherichia coli [12]): 20 µg/mL
CC[C@H](C)[C@H](NC(=O)[C@H](CC1CCCCC1)NC(=O)[C@@H](Cc1c[nH]c2ccccc12)NC(=O)[C@@H](N)CCCN)C(=O)N[C@@H](Cc1c2ccccc2cc2ccccc12)C(=O)N[C@@H](Cc1cn(Cc2ccccc2)cn1)C(N)=O (H-[Orn][dW][Cha]I[Ala(9-anthryl)][His(τ-Bzl)]-NH2),–,5 µg/mL,–,Non-Toxic,–,–,10 µg/mL,–,10 µg/mL,–,1.25 µg/mL,–,Not Active,Not Active,10 µg/mL,20 µg/mL,Not Active,20 µg/mL,Not Active,20 µg/mL,–
CC[C@H](C)[C@H](NC(=O)[C@H](CC1CCCCC1)NC(=O)[C@@H](Cc1c[nH]c2ccccc12)NC(=O)[C@@H](N)CCCN)C(=O)N[C@@H](Cc1csc2ccccc12)C(=O)N[C@@H](Cc1cn(Cc2ccccc2)cn1)C(N)=O (H-[Orn][dW][Cha]I[Bta][His(τ-Bzl)]-NH2),–,–,–,Non-Toxic,–,–,–,–,20 µg/mL,Not Active,1.25 µg/mL,–,Not Active,Not Active,–,–,Not Active,20 µg/mL,Not Active,20 µg/mL,IC50 (Staphylococcus aureus [2]; read-out: IC50): 20 µg/mL
CC(C)C[C@H](NC(=O)[C@H](CC1CCCCC1)NC(=O)[C@@H](Cc1c[nH]c2ccccc12)NC(=O)[C@@H](N)CCCN)C(=O)N[C@H](Cc1ccccc1)C(=O)N[C@@H](Cc1cn(Cc2ccccc2)cn1)C(N)=O (H-[Orn][dW][Cha]L[dF][His(τ-Bzl)]-NH2),20 µg/mL,–,20 µg/mL,Non-Toxic,–,Not Active,–,20 µg/mL,20 µg/mL,Not Active,5 µg/mL,20 µg/mL,Not Active,Not Active,–,–,Not Active,–,–,–,–
NCCC[C@H](N)C(=O)N[C@H](Cc1c[nH]c2ccccc12)C(=O)N[C@@H](CC1CCCCC1)C(=O)N[C@@H](Cc1cccc2ccccc12)C(=O)N[C@H](Cc1ccccc1)C(=O)N[C@@H](Cc1cn(Cc2ccccc2)cn1)C(N)=O (H-[Orn][dW][Cha][1Nal][dF][His(τ-Bzl)]-NH2),10 µg/mL,10 µg/mL,–,Non-Toxic,–,–,10 µg/mL,–,–,–,2.5 µg/mL,10 µg/mL,Not Active,–,20 µg/mL,20 µg/mL,–,20 µg/mL,Not Active,20 µg/mL,MIC (Candida albicans [9]): 20 µg/mL; MFC (Aspergillus fumigatus [18]): 20 µg/mL
